# Laboratory results reported in PubChem BioAssay AID330 (DTP/NCI, 2004).
# Values joined by “and” are separate entries in the source; they are usually repeats but may differ in a detail not shown here. Equal values may be shown once. Toxic doses and inconclusive results are not listed.
# Test system: P388 leukemia ip, CD2F1 mice, survival T/C
# Assay: NCI In Vivo Anticancer Drug Screen. Data for tumor model P388 Leukemia (intraperitoneal) in CD2F1 (CDF1) mice
# Details: endpoint: median survival time, higher = longer survival
# Procedure, shortened: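 Mice carrying the transplanted tumor received test compound or vehicle. Survival was recorded in each group, and the value is the treated-group measurement divided by that of the vehicle-treated control group.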
structure (smiles),measurement,setting,value
CCOS(=O)(=O)CCl,T/C,"dose: 12.5 mg/kg/injection, schedule: Q01DX009 (ip), vehicle: saline with Tween-80",106 % of control
same,T/C,"dose: 25.0 mg/kg/injection, schedule: Q01DX009 (ip), vehicle: saline with Tween-80",100 % of control
same,T/C,"dose: 50.0 mg/kg/injection, schedule: Q01DX009 (ip), vehicle: saline with Tween-80",107 % of control and 112 % of control
COc1ccc(CC2C(=O)NC(C)C(=O)N(C)C3C(=O)N(C)C(Cc4ccc(O)c(c4)Oc4ccc(cc4)C3O)C(=O)NC(C)C(=O)NC(C)C(=O)N2C)cc1 (stereo not drawn),T/C,"dose: 0.03 mg/kg/injection, schedule: Q01DX009 (ip), vehicle: Klucel (hydroxypropylcellulose) (HPC)",94 % of control
same,T/C,"dose: 0.03 mg/kg/injection, schedule: Q01DX009 (ip), vehicle: saline + alcohol",100 % of control
same,T/C,"dose: 0.03 mg/kg/injection, schedule: Q03HX024 (ip), vehicle: saline + alcohol",123 % of control
same,T/C,"dose: 0.06 mg/kg/injection, schedule: Q01DX009 (ip), vehicle: Klucel (hydroxypropylcellulose) (HPC)",102 % of control
same,T/C,"dose: 0.06 mg/kg/injection, schedule: Q01DX009 (ip), vehicle: saline + alcohol",106 % of control
same,T/C,"dose: 0.06 mg/kg/injection, schedule: Q03HX008 (ip), vehicle: saline + alcohol",118 % of control
same,T/C,"dose: 0.06 mg/kg/injection, schedule: Q03HX016 (ip), vehicle: saline + alcohol",122 % of control
same,T/C,"dose: 0.12 mg/kg/injection, schedule: Q01DX009 (ip), vehicle: Klucel (hydroxypropylcellulose) (HPC)",104 % of control
same,T/C,"dose: 0.12 mg/kg/injection, schedule: Q01DX009 (ip), vehicle: saline + alcohol",111 % of control
same,T/C,"dose: 0.13 mg/kg/injection, schedule: Q03HX024 (ip), vehicle: other",103 % of control
same,T/C,"dose: 0.13 mg/kg/injection, schedule: Q03HX024 (ip), vehicle: saline + alcohol",153 % of control
same,T/C,"dose: 0.25 mg/kg/injection, schedule: Q01DX005 (ip), vehicle: saline",116 % of control
same,T/C,"dose: 0.25 mg/kg/injection, schedule: Q01DX005 (iv), vehicle: other",100 % of control
same,T/C,"dose: 0.25 mg/kg/injection, schedule: Q01DX005 (iv), vehicle: saline",107 % of control
same,T/C,"dose: 0.25 mg/kg/injection, schedule: Q01DX009 (ip), vehicle: Klucel (hydroxypropylcellulose) (HPC)",113 % of control
same,T/C,"dose: 0.25 mg/kg/injection, schedule: Q01DX009 (sc), vehicle: other",95 % of control
same,T/C,"dose: 0.25 mg/kg/injection, schedule: Q03HX008 (ip), vehicle: other",120 % of control
same,T/C,"dose: 0.25 mg/kg/injection, schedule: Q03HX016 (ip), vehicle: other",100 % of control
same,T/C,"dose: 0.25 mg/kg/injection, schedule: Q03HX024 (ip), vehicle: other",91 % of control
same,T/C,"dose: 0.25 mg/kg/injection, schedule: Q03HX024 (ip), vehicle: saline + alcohol",157 % of control
same,T/C,"dose: 0.5 mg/kg/injection, schedule: Q01DX005 (iv), vehicle: other",98 % of control
same,T/C,"dose: 0.5 mg/kg/injection, schedule: Q01DX005 (iv), vehicle: saline",114 % of control
same,T/C,"dose: 0.5 mg/kg/injection, schedule: Q01DX009 (ip), vehicle: clinical formulation",157 % of control
same,T/C,"dose: 0.5 mg/kg/injection, schedule: Q01DX009 (ip), vehicle: water",154 % of control
same,T/C,"dose: 0.5 mg/kg/injection, schedule: Q01DX009 (oral), vehicle: other",98 % of control
same,T/C,"dose: 0.5 mg/kg/injection, schedule: Q01DX009 (sc), vehicle: other",99 % of control
same,T/C,"dose: 0.5 mg/kg/injection, schedule: Q03HX016 (ip), vehicle: saline + alcohol",150 % of control
same,T/C,"dose: 0.5 mg/kg/injection, schedule: Q03HX024 (ip), vehicle: saline + alcohol",172 % of control
same,T/C,"dose: 1.0 mg/kg/injection, schedule: Q01DX001 (ip), vehicle: other",122 % of control
same,T/C,"dose: 1.0 mg/kg/injection, schedule: Q01DX001 (oral), vehicle: other",103 % of control
same,T/C,"dose: 1.0 mg/kg/injection, schedule: Q01DX005 (ip), vehicle: saline",158 % of control
same,T/C,"dose: 1.0 mg/kg/injection, schedule: Q01DX005 (iv), vehicle: other",99 % of control
same,T/C,"dose: 1.0 mg/kg/injection, schedule: Q01DX009 (ip), vehicle: Klucel (hydroxypropylcellulose) (HPC)",113 % of control
same,T/C,"dose: 1.0 mg/kg/injection, schedule: Q01DX009 (ip), vehicle: clinical formulation",198 % of control
same,T/C,"dose: 1.0 mg/kg/injection, schedule: Q01DX009 (ip), vehicle: other",167 % of control
same,T/C,"dose: 1.0 mg/kg/injection, schedule: Q01DX009 (ip), vehicle: saline + alcohol",172 % of control
same,T/C,"dose: 1.0 mg/kg/injection, schedule: Q01DX009 (ip), vehicle: water",166 % of control
same,T/C,"dose: 1.0 mg/kg/injection, schedule: Q01DX009 (oral), vehicle: other",95 % of control
same,T/C,"dose: 1.0 mg/kg/injection, schedule: Q01DX009 (sc), vehicle: other",95 % of control
same,T/C,"dose: 2.0 mg/kg/injection, schedule: Q01DX001 (oral), vehicle: other",97 % of control
same,T/C,"dose: 2.0 mg/kg/injection, schedule: Q01DX005 (ip), vehicle: other",167 % of control
same,T/C,"dose: 2.0 mg/kg/injection, schedule: Q01DX005 (ip), vehicle: saline",166 % of control
same,T/C,"dose: 2.0 mg/kg/injection, schedule: Q01DX009 (ip), vehicle: clinical formulation",195 % of control
same,T/C,"dose: 2.0 mg/kg/injection, schedule: Q01DX009 (ip), vehicle: other",183 % of control
same,T/C,"dose: 2.0 mg/kg/injection, schedule: Q01DX009 (ip), vehicle: saline + alcohol",184 % of control
same,T/C,"dose: 2.0 mg/kg/injection, schedule: Q01DX009 (ip), vehicle: water",184 % of control
same,T/C,"dose: 2.0 mg/kg/injection, schedule: Q01DX009 (oral), vehicle: other",122 % of control
same,T/C,"dose: 2.0 mg/kg/injection, schedule: Q04DX003 (ip), vehicle: other",155 % of control
same,T/C,"dose: 4.0 mg/kg/injection, schedule: Q01DX001 (oral), vehicle: other",100 % of control
same,T/C,"dose: 4.0 mg/kg/injection, schedule: Q01DX005 (ip), vehicle: other",165 % of control
same,T/C,"dose: 4.0 mg/kg/injection, schedule: Q01DX009 (ip), vehicle: Klucel (hydroxypropylcellulose) (HPC)",116 % of control
same,T/C,"dose: 4.0 mg/kg/injection, schedule: Q01DX009 (ip), vehicle: other",94 % of control
same,T/C,"dose: 4.0 mg/kg/injection, schedule: Q01DX009 (ip), vehicle: saline + alcohol",103 % of control
same,T/C,"dose: 4.0 mg/kg/injection, schedule: Q01DX009 (oral), vehicle: other",122 % of control
same,T/C,"dose: 4.0 mg/kg/injection, schedule: Q04DX003 (ip), vehicle: other",155 % of control
same,T/C,"dose: 4.0 mg/kg/injection, schedule: Q08DX002 (ip), vehicle: other",152 % of control
same,T/C,"dose: 8.0 mg/kg/injection, schedule: Q01DX001 (oral), vehicle: other",104 % of control
same,T/C,"dose: 8.0 mg/kg/injection, schedule: Q01DX009 (oral), vehicle: other",92 % of control
same,T/C,"dose: 8.0 mg/kg/injection, schedule: Q04DX003 (ip), vehicle: other",163 % of control
same,T/C,"dose: 16.0 mg/kg/injection, schedule: Q01DX001 (oral), vehicle: other",95 % of control
same,T/C,"dose: 500.0 micrograms/kg/injection, schedule: Q01DX009 (ip), vehicle: saline with Tween-80",150 % of control
same,T/C,"dose: 1000.0 micrograms/kg/injection, schedule: Q01DX009 (ip), vehicle: saline with Tween-80",177 % of control
same,T/C,"dose: 2000.0 micrograms/kg/injection, schedule: Q01DX009 (ip), vehicle: saline with Tween-80",152 % of control
O=C(NC1=C(N2CC2)C(=O)C(NC(=O)OCCO)=C(N2CC2)C1=O)OCCO,T/C,"dose: 0.18 mg/kg/injection, schedule: Q01DX009 (ip), vehicle: saline",174 % of control
same,T/C,"dose: 0.39 mg/kg/injection, schedule: Q01DX009 (ip), vehicle: saline",170 % of control
same,T/C,"dose: 0.75 mg/kg/injection, schedule: Q01DX009 (ip), vehicle: saline",218 % of control
same,T/C,"dose: 1.5 mg/kg/injection, schedule: Q01DX009 (ip), vehicle: saline",169 % of control and 175 % of control
same,T/C,"dose: 3.0 mg/kg/injection, schedule: Q01DX009 (ip), vehicle: saline",202 % of control and 211 % of control
same,T/C,"dose: 6.0 mg/kg/injection, schedule: Q01DX009 (ip), vehicle: saline",239 % of control and 258 % of control
Nc1cccc[n+]1CCCCCC[n+]1ccccc1N,T/C,"dose: 3.13 mg/kg/injection, schedule: Q01DX009 (ip), vehicle: saline",102 % of control
same,T/C,"dose: 6.25 mg/kg/injection, schedule: Q01DX009 (ip), vehicle: saline",103 % of control
Nn1c(=O)[nH][nH]c1=O,T/C,"dose: 25.0 mg/kg/injection, schedule: Q01DX009 (ip), vehicle: Klucel (hydroxypropylcellulose) (HPC)",93 % of control
same,T/C,"dose: 50.0 mg/kg/injection, schedule: Q01DX009 (ip), vehicle: Klucel (hydroxypropylcellulose) (HPC)",104 % of control
same,T/C,"dose: 100.0 mg/kg/injection, schedule: Q01DX009 (ip), vehicle: Klucel (hydroxypropylcellulose) (HPC)",96 % of control
same,T/C,"dose: 200.0 mg/kg/injection, schedule: Q01DX009 (ip), vehicle: Klucel (hydroxypropylcellulose) (HPC)",93 % of control
